Patent US20250205199A1, “5-METHOXY-N,N-[…][…] THE TREATMENT OF SOCIAL/EMOTIONAL […] DETACHMENT” (GH RESEARCH IRELAND LIMITED, priority 2022, published 2025)

Experiments:
[1] = Pharmacokinetics of 5-MeO-DMT and bufotenine after inhalation; type: in vivo, human; conditions: for Plasma concentration as % of Cmax: whole dose range tested (6 mg, 12 mg, 18 mg)
Protocol: This applies over the whole dose range tested (6 mg, 12 mg, 18 mg). […] Uptitration as disclosed herein will not lead to accumulation and thus not to higher plasma concentrations, for instance, 10 minutes, 2 hours, or 3 hours after administration.
Blood samples were obtained at 1; 2; 4; 7; 10; 15; 20; 30; 45 min and 1; 1.5; 2; 3; 4 hours after administration.
PK parameters were generated by algebraic analysis of the concentration versus time plots for each individual. The analysis was carried out using the software Phoenix WinNonlin 6.3.

[2] = test system: patients with treatment-resistant major depressive disorder (TRD); test: Phase 1/2 clinical trial of inhaled 5-MeO-DMT in patients with TRD
Protocol: Patients were assigned to different groups. In the context of the present invention, the group who received a single, 12 mg dose and the group who underwent an intra-day individualized dosing regimen (IDR) that allowed for multiple, escalating doses (6 mg, 12 mg and 18 mg) within a single day, driven by the intensity of the patient-reported psychedelic experience are of interest.
The data gathered include the assessment of the treated patients against several scales including the Montgomery-Åsberg Depression Rating Scale (MADRS) and the Brief Psychiatric Rating Scale (BPRS).
This trial was designed in two parts. Part A was an open-label, single-arm, single-dose Phase 1 trial with two dose levels (12 mg (n=4) and 18 mg (n=4)). […] The primary endpoint of Part B was to assess the effects on the severity of depression, as assessed by the proportion of patients in remission on day seven after dosing, defined as a MADRS total score of less than or equal to 10.

[3] = test system: patients with postpartum depression (PPD); test: Clinical trial of inhaled 5-MeO-DMT in postpartum depression (one patient so far)
Protocol: The single-arm, open-label clinical trial will involve 15 adult female patients with clinically diagnosed postpartum depression (PPD).
The second dose (12 mg) will only be administered if: • a. […] The 6 mg dose was safe and well-tolerated according to the investigator, • c. Any psychoactive effects (PsE) of the prior dose have subsided, and • d. Pre-dose vital parameters and forced expiratory volume in one second (FEV1) are in normal range, or if outside of the normal range, are not clinically significant according to the investigator. • 3. Similarly, a third dose (18 mg) will only be administered if: • a. […] The 12 mg dose was safe and well-tolerated according to the investigator, and • c. Any PsE of the prior dose have subsided, and • d. Pre-dose vital parameters and forced expiratory volume in one second (FEV1) are in normal range, or if outside of the normal range, are not clinically significant according to the investigator.
The patients will be assessed for a peak psychedelic experience (based on a patient-scored visual analogue scale, the PE scale), sedation, and other endpoints after dosing. Follow-up visits are planned for Day 1, and Day 7 after the dosing day.
The following criteria must be met by all patients considered for clinical trial participation: • 1. Is female and in the age range between 18 and 45 years (inclusive) at screening. • 2. Has a body mass index (BMI) in the range of 18.5 and 35 kg/m^2 (inclusive) at screening. • 3. Meets the trial criteria for PPD as assessed by a trial psychiatrist or registered psychologist: • a. Diagnosis of Major Depressive Disorder without psychotic features, confirmed by the Mini-International Neuropsychiatric Interview (MINI), with peri-partum onset that began no earlier than gestation and no later than the first 4 weeks postpartum. • b. Has a Montgomery-Åsberg Depression Rating Scale (MADRS) total score of equal to or greater than 28 at screening and pre-dose on Day 0. • 6. […] Patients must have a negative pregnancy test at screening and on the pre-test day (Day −1). • 5. Is willing to delay start of other antidepressant or anxiety medication until after the end of the trial at Day 7 and agrees to keep any psychotherapy unchanged during the trial.
A potential patient who meets any of the following key exclusion criteria will be excluded from participation in this trial: • 1. Has, based on history, psychiatric assessment, and evaluation of the MINI, a current or prior diagnosis of bipolar disorder, a manic or hypomanic episode, a psychotic disorder, Major Depressive Disorder (MDD) or other mood disorder with psychotic features, obsessive compulsive disorder, post-traumatic stress disorder (PTSD), autism spectrum disorder, borderline personality disorder, schizophrenia, delusional disorder, paranoid personality disorder, schizoaffective disorder, clinically significant intellectual disability, or any other psychiatric comorbidity that renders the patient unsuitable for the trial according to the investigator's judgment. • 2. Has one or more first or second degree relatives with a current or previously diagnosed bipolar disorder, psychotic disorder or other mood disorder (including MDD) with psychotic features. • 3. Is in the judgement of a trial psychiatrist or registered psychologist, at significant risk for suicide based on history, psychiatric assessment, and evaluation of suicidal ideation and suicidal behaviour based on the Columbia-Suicide Severity Rating Scale (C-SSRS). • 4. Has taken anti-depressive medication within 14 days or 5 half-lives (whichever is longer) prior to dosing (exception: within the last 5 weeks in the case of fluoxetine). • 5.

[4] = oral; cited from earlier work
[5] = test system: patients with treatment resistant bipolar depression; conditions: single 0.5 mg·kg^−1 infusion; cited from earlier work
[6] = 12 mg n=4, 2 hours after dose, baseline 16

## COc1ccc2[nH]cc(CCN(C)C)c2c1 [5-MeO-DMT]
[1]; 10 minutes after inhalation
  Plasma concentration as % of Cmax: ≤ 10%
[1]; 2 hours after inhalation
  Plasma concentration as % of Cmax: ≤ 1%
[1]; 3 hours after inhalation, whole dose range tested
  Detectability in the plasma: no longer detectable
[1]; dosing schemes relying on uptitration
  Pharmacokinetic measurements under uptitration dosing schemes versus single doses: Substantially similar results
[2]; 12 mg n=4, 2 hours after dose, baseline 8
  MADRS Suicidal Thoughts improvement: 5 points
[2]; 12 mg n=4, 2 hours after dose, baseline 13
  MADRS Inner Tension improvement: 11
[2]; [6]
  MADRS Concentration Difficulties improvement: 9
  MADRS Inability to Feel improvement: 7 points
  MADRS Lassitude improvement: 6
  MADRS Pessimistic Thoughts improvement: 8
[2]; 12 mg n=4, 3 hours after dose, baseline 11
  BPRS Blunted Affect improvement: 3 points
[2]; 12 mg n=4, 3 hours after dose, baseline 13
  BPRS Emotional Withdrawal improvement: 2 points
[2]; 12 mg n=4, 3 hours after dose, baseline 14
  BPRS Tension improvement: 5
[2]; 12 mg n=4, 3 hours after dose, baseline 18
  BPRS Guilt Feelings improvement: 9
[2]; 12 mg n=4, 3 hours after dose, baseline 25
  BPRS Anxiety improvement: 14
[2]; 12 mg n=4, day 1, baseline 13
  MADRS Inner Tension improvement: 10
[2]; 12 mg n=4, day 1, baseline 14
  BPRS Tension improvement: 8
[2]; 12 mg n=4, day 1, baseline 16
  MADRS Concentration Difficulties improvement: 14
  MADRS Lassitude improvement: 16
  MADRS Pessimistic Thoughts improvement: 9
[2]; 12 mg n=4, day 1, baseline 18
  BPRS Guilt Feelings improvement: 13
[2]; 12 mg n=4, day 1, baseline 25
  BPRS Anxiety improvement: 19
[2]; 12 mg n=4, day 7, baseline 12
  MADRS Reduced Sleep percentage improvement: 50.00%
[2]; 12 mg n=4, day 7, baseline 13
  MADRS Inner Tension improvement: 8
[2]; 12 mg n=4, day 7, baseline 14
  BPRS Tension improvement: 8
[2]; 12 mg n=4, day 7, baseline 16
  MADRS Concentration Difficulties improvement: 13
  MADRS Lassitude improvement: 13
  MADRS Pessimistic Thoughts improvement: 8
[2]; 12 mg n=4, day 7, baseline 18
  BPRS Guilt Feelings improvement: 13
[2]; 12 mg n=4, day 7, baseline 25
  BPRS Anxiety improvement: 19
[2]; IDR n=8, 2 hours after last dose, baseline 11
  MADRS Suicidal Thoughts improvement: 8 points
[2]; IDR n=8, 2 hours after last dose, baseline 26
  MADRS Inner Tension improvement: 15
[2]; IDR n=8, 2 hours after last dose, baseline 27
  MADRS Lassitude improvement: 17
[2]; IDR n=8, 2 hours after last dose, baseline 28
  MADRS Pessimistic Thoughts improvement: 21
[2]; IDR n=8, 2 hours after last dose, baseline 30
  MADRS Concentration Difficulties improvement: 19
[2]; IDR n=8, 2 hours after last dose, baseline 36
  MADRS Inability to Feel improvement: 24 points
[2]; IDR n=8, 3 hours after last dose, baseline 13
  BPRS Emotional Withdrawal improvement: 5 points
[2]; IDR n=8, 3 hours after last dose, baseline 15
  BPRS Blunted Affect improvement: 4 points
[2]; IDR n=8, 3 hours after last dose, baseline 16
  BPRS Tension improvement: 5
[2]; IDR n=8, 3 hours after last dose, baseline 34
  BPRS Guilt Feelings improvement: 20
[2]; IDR n=8, 3 hours after last dose, baseline 37
  BPRS Anxiety improvement: 18
[2]; IDR n=8, day 1, baseline 16
  BPRS Tension improvement: 5
[2]; IDR n=8, day 1, baseline 25
  MADRS Reduced Sleep percentage improvement: 52.00%
[2]; IDR n=8, day 1, baseline 26
  MADRS Inner Tension improvement: 20
[2]; IDR n=8, day 1, baseline 27
  MADRS Lassitude improvement: 22
[2]; IDR n=8, day 1, baseline 28
  MADRS Pessimistic Thoughts improvement: 24
[2]; IDR n=8, day 1, baseline 30
  MADRS Concentration Difficulties improvement: 29
[2]; IDR n=8, day 1, baseline 34
  BPRS Guilt Feelings improvement: 23
[2]; IDR n=8, day 1, baseline 37
  BPRS Anxiety improvement: 21
[2]; IDR n=8, day 7, baseline 16
  BPRS Tension improvement: 6
[2]; IDR n=8, day 7, baseline 25
  MADRS Reduced Sleep percentage improvement: 64.00%
[2]; IDR n=8, day 7, baseline 26
  MADRS Inner Tension improvement: 14
[2]; IDR n=8, day 7, baseline 27
  MADRS Lassitude improvement: 24
[2]; IDR n=8, day 7, baseline 28
  MADRS Pessimistic Thoughts improvement: 25
[2]; IDR n=8, day 7, baseline 30
  MADRS Concentration Difficulties improvement: 21
[2]; IDR n=8, day 7, baseline 34
  BPRS Guilt Feelings improvement: 24
[2]; IDR n=8, day 7, baseline 37
  BPRS Anxiety improvement: 20
[2]; Part A
  SAEs: No SAEs
[2]; Part A, 12 mg n=4, day seven
  Patients with MADRS remission (total score <=10): 50%
[2]; Part A, 12 mg, day seven
  Mean MADRS change from baseline: −21.0
  Mean MADRS change from baseline, percent: −65%
[2]; Part A, 18 mg n=4, day seven
  Patients with MADRS remission (total score <=10): 25%
[2]; Part A, 18 mg, day seven
  Mean MADRS change from baseline, percent: −41%
[3]
  ECG (3 hours), safety laboratory analyses (7 days), CADSS (3 hours, 1 day, 7 days): unremarkable
  Reported adverse events (cramping left abdominal pain and headache, Day 0): mild, short-lasting and resolved spontaneously
  Tolerability of the inhalation procedure: well tolerated with no inhalation-related adverse events
[3]; 2 hr, baseline 29
  Total MADRS improvement: 24
  Total MADRS score: 5
[3]; Day 1, baseline 6
  BPRS Tension improvement: 5
[3]; Day 1, baseline 29
  Total MADRS improvement: 29
  Total MADRS score: 0
[3]; Day 7, Day 0 score 3
  BIMF item 16 (I worry about how other people judge me (as a mother)) score: 5
[3]; Day 7, Day 0 score 5
  BIMF item 11 (I take a little time each week to do something for myself) score: 6
[3]; Day 7, Day 0 score 5, maximum possible 12
  BIMF functional domain Adjustment score: 6
[3]; Day 7, Day 0 score 9, maximum possible 18
  BIMF functional domain Self-Care score: 13
[3]; Day 7, Day 0 score 12, maximum possible 12
  BIMF functional domain Infant Care score: 12
[3]; Day 7, Day 0 score 15, maximum possible 18
  BIMF functional domain Mother-Child Interaction score: 17
[3]; Day 7, Day 0 score 17, maximum possible 18
  BIMF functional domain Social Support score: 18
[3]; Day 7, Day 0 score 28, maximum possible 36
  BIMF functional domain Management score: 33
[3]; Day 7, Day 0 score 44, maximum possible 60
  BIMF functional domain Psychological Well-being score: 53
[3]; Day 7, baseline 29
  Total MADRS improvement: 28
  Total MADRS score: 1
[3]; Day 7, from 92 to 105 of possible 120
  BIMF total score improvement: 14%
[3]; Day 7 vs Day 0
  BIMF TOTAL Δ (Day 7): 13
  BIMF functional domain Adjustment % Improvement: 20.00%
  BIMF functional domain Infant Care % Improvement: 0.00%
  BIMF functional domain Management % Improvement: 18%
  BIMF functional domain Self-Care % Improvement: 44%
[3]; Discharge, baseline 6
  BPRS Tension improvement: 5
[3]; IDR 6 mg then 12 mg
  Standard criteria for MADRS response (at least 50% improvement) and MADRS remission (total score <=10): fulfilled
  Time to clinical remission after administration: ≤ 2 h
[3]; except temporary, clinically non-relevant increase in heart rate and blood pressure shortly after administration
  Changes in vital parameters: no other noteworthy changes in vital parameters

## CCN(CC)C(=O)[C@@H]1C=C2c3cccc4[nH]cc(c34)C[C@H]2N(C)C1 [LSD, lysergic acid diethylamide]
[4]
  Duration of acute psychedelic effects: several hours

## CNC1(c2ccccc2Cl)CCCCC1=O (stereo not drawn) [ketamine]
[5]
  Duration of the anti-anhedonic effect: up to 14 days
  Time until decrease of anhedonia took effect: ≤ 40 min

## CN(C)CCc1c[nH]c2ccc(O)cc12 [bufotenine]
[1]; uptitration scheme
  Bufotenine concentrations when subjects receiving an uptitration scheme were included: Substantially similar observations
